Assay results published in ChEMBL document CHEMBL1131601, “4-Amino-2-[4-[1-(benzyloxycarbonyl)-2(S)- [[(1,1-dimethylethyl)amino]carbonyl]-piperazinyl]-6, 7-dimethoxyquinazoline (L-765,314): a potent and selective alpha1b adrenergic receptor antagonist” (J Med Chem, 1998).

How the values were obtained:
[1] = molecular target: T1, Alpha-1A adrenergic receptor (Rattus norvegicus, UniProt P43140); assay: Compound was tested for the tissue binding affinity using [3H]- Prazosin as radioligand to the rat prostate Alpha-1A adrenergic receptor subtype
T1 sequence (P43140 whole entry): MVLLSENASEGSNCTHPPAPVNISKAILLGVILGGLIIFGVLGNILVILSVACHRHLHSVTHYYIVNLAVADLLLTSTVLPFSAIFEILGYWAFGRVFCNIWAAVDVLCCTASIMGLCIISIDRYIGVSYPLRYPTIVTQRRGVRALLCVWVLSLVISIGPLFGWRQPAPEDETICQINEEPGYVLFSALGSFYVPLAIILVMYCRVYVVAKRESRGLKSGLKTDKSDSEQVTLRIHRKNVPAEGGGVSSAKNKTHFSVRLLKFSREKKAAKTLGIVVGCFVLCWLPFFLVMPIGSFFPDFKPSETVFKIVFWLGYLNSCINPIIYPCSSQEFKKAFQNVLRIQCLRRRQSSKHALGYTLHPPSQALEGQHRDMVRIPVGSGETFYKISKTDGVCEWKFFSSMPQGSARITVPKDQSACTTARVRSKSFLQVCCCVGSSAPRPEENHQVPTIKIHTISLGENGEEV

[2] = molecular target: T2, Alpha-1D adrenergic receptor (Rattus norvegicus, UniProt P23944); assay: Compound was evaluated for its ability to displace [125I]HEAT binding from rat Alpha-1D adrenergic receptor
T2 sequence (P23944 whole entry): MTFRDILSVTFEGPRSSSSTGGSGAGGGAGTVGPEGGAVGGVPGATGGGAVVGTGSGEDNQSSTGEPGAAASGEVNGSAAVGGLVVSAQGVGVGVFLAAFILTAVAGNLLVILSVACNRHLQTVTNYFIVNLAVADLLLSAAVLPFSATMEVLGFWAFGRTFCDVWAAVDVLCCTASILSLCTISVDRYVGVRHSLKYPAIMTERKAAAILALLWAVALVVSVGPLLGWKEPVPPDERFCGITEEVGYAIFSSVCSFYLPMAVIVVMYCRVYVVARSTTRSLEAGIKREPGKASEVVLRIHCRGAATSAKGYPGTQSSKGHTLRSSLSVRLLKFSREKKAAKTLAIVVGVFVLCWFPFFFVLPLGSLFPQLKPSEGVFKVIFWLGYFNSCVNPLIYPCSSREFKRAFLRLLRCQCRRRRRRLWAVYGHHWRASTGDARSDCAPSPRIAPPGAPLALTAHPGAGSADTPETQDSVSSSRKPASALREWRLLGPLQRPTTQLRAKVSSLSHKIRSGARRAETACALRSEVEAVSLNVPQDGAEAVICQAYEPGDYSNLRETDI

[3] = molecular target: T1, Alpha-1A adrenergic receptor; assay: Compound was evaluated for its ability to displace [125I]HEAT binding from rat Alpha-1A adrenergic receptor
[4] = molecular target: T3, Alpha-1D adrenergic receptor (Homo sapiens, UniProt P25100); assay: Compound was tested for binding affinity utilizing cloned receptor binding assays by using [125 I]HEAT as radioligand to the human Alpha-1D adrenergic receptor
T3 sequence (P25100 whole entry): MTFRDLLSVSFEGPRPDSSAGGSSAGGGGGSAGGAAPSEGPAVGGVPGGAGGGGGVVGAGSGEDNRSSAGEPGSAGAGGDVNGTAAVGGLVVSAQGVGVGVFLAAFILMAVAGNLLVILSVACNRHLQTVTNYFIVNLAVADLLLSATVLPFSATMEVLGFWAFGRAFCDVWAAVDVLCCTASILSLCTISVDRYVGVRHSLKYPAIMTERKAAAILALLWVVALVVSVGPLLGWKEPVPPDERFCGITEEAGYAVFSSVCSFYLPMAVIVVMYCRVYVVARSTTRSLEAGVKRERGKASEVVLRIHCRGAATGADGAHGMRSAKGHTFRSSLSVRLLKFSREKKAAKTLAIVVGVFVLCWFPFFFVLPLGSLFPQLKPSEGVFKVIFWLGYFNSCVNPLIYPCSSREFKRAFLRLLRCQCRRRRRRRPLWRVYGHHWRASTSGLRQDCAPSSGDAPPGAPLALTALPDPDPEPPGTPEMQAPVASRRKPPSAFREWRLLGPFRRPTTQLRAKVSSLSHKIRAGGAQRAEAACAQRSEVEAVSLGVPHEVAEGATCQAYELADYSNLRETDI

[5] = molecular target: T4, Alpha-1A adrenergic receptor (Homo sapiens, UniProt P35348); assay: Compound was tested for binding affinity utilizing cloned receptor binding assays by using [125 I]HEAT as radioligand to the human Alpha-1A adrenergic receptor
T4 sequence (P35348 whole entry): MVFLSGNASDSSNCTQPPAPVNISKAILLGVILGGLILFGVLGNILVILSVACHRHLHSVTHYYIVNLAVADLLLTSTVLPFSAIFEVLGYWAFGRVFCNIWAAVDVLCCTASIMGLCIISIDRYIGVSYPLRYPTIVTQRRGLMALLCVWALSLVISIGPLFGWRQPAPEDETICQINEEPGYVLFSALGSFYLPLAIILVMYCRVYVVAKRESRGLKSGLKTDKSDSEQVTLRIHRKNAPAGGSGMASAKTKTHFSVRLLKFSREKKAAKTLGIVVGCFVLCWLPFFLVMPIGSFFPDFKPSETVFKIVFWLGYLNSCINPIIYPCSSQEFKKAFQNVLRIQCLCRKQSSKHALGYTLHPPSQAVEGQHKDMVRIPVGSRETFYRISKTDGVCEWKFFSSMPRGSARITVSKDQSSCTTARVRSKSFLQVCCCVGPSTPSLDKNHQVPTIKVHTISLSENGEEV

[6] = molecular target: T5, Alpha-1B adrenergic receptor (Rattus norvegicus, UniProt P15823); assay: Compound was tested for the tissue binding affinity using [3H]- Prazosin as radioligand to the rat liver Alpha-1B adrenergic receptor
T5 sequence (P15823 whole entry): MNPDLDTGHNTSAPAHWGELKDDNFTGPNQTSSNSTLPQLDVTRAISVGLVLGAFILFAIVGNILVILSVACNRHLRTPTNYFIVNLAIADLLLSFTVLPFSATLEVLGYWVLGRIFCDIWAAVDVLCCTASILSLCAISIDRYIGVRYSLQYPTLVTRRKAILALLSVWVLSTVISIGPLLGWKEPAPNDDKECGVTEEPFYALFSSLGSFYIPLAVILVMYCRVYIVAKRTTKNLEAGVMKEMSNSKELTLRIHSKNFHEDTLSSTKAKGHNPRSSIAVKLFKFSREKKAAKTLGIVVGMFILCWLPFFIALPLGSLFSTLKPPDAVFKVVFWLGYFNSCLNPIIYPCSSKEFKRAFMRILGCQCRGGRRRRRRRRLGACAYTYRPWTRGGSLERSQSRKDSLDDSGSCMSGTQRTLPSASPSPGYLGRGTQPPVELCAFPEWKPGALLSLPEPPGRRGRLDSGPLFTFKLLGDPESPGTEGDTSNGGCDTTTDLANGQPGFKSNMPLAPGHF

[7] = molecular target: T5, Alpha-1B adrenergic receptor; assay: Compound was tested for the tissue binding affinity using [3H]- Prazosin as radioligand to the rat spleen Alpha-1B adrenergic receptor subtype; type: tissue-based
[8] = molecular target: T5, Alpha-1B adrenergic receptor; assay: Compound was evaluated for its ability to displace [125I]HEAT binding from rat Alpha-1B adrenergic receptor
[9] = molecular target: T6, Alpha-1B adrenergic receptor (Homo sapiens, UniProt P35368); assay: Compound was tested for binding affinity utilizing cloned receptor binding assays by using [125 I]HEAT as radioligand to the human Alpha-1B adrenergic receptor
T6 sequence (P35368 whole entry): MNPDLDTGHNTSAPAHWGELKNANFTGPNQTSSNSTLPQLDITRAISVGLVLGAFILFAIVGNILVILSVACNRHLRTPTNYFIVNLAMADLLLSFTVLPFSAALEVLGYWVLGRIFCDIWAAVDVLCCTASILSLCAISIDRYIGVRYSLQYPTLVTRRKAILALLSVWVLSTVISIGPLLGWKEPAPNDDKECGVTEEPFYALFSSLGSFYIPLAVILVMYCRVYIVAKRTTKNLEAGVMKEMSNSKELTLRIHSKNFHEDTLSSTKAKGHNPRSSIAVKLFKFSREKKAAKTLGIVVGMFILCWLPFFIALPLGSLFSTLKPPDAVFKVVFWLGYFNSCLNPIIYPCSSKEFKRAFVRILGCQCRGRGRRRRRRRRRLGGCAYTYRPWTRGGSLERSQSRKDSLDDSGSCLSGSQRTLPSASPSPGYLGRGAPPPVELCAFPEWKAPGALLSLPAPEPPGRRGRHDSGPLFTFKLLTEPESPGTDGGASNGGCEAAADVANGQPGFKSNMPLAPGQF

[10] = molecular target: T4, Alpha-1A adrenergic receptor; assay: Compound was tested for the tissue binding affinity using [3H]- Prazosin as radioligand to the human prostate Alpha-1A adrenergic receptor subtype
[11] = molecular target: T6, Alpha-1B adrenergic receptor; assay: Compound was tested for its binding affinity utilizing cloned receptor binding assays by using [125 I]HEAT as radioligand to the human Alpha-1B adrenergic receptor (n >= 2)
[12] = molecular target: T5, Alpha-1B adrenergic receptor; assay: Compound was tested for the tissue binding affinity using [3H]- Prazosin as radioligand to the rat spleen Alpha-1B adrenergic receptor subtype.; type: tissue-based
[13] = molecular target: T6, Alpha-1B adrenergic receptor; assay: Compound was tested for the tissue binding affinity using [125I]- HEAT as radioligand to the human aorta Alpha-1B adrenergic receptor subtype.; type: tissue-based
[14] = molecular target: T4, Alpha-1A adrenergic receptor; assay: Compound was tested for the tissue binding affinity using [3H]- Prazosin as radioligand to the human prostate Alpha-1A adrenergic receptor subtype.
[15] = molecular target: T3, Alpha-1D adrenergic receptor; assay: Compound was tested for its binding affinity utilizing cloned receptor binding assays by using [125 I]HEAT as radioligand to the human Alpha-1D adrenergic receptor
[16] = molecular target: T1, Alpha-1A adrenergic receptor; assay: Compound was tested for the tissue binding affinity using [3H]- Prazosin as radioligand to the rat prostate Alpha-1A adrenergic receptor subtype.
[17] = molecular target: T4, Alpha-1A adrenergic receptor; assay: Compound was tested for its binding affinity utilizing cloned receptor binding assays by using [125 I]HEAT as radioligand to the human Alpha-1A adrenergic receptor
[18] = molecular target: T6, Alpha-1B adrenergic receptor; assay: Compound was tested for the tissue binding affinity using [125I]- HEAT as radioligand to the human aorta Alpha-1B adrenergic receptor; type: tissue-based
[19] = molecular target: T6, Alpha-1B adrenergic receptor; assay: Compound was tested for its binding affinity utilizing cloned receptor binding assays by using [125 I]HEAT as radioligand to the human Alpha-1B adrenergic receptor

| Structure (SMILES) | IC50 [1] [nM] | Ki [2] [nM] | Ki [3] [nM] | Ki [4] [nM] | Ki [5] [nM] | IC50 [6] [nM] | IC50 [7] [nM] | Ki [8] [nM] | Ki [9] [nM] | IC50 [10] [nM] | Ki [11] [nM] | IC50 [12] [nM] | IC50 [13] [nM] | IC50 [14] [nM] | Ki [15] [nM] | IC50 [16] [nM] | Ki [17] [nM] | IC50 [18] [µM] | Ki [19] [nM] |
| --- | --- | --- | --- | --- | --- | --- | --- | --- | --- | --- | --- | --- | --- | --- | --- | --- | --- | --- | --- |
| COc1cc2nc(N3CCN(C(=O)c4ccco4)[C@H](C(=O)NC(C)(C)C)C3)nc(N)c2cc1OC | 2000 | 78 | 580 | 73 | 1700 | 15 | 14 | 7 | 3.5 | 1900 |  |  |  |  |  |  |  |  |  |
| COc1cc2nc(N3CCN[C@H](C(=O)NC(C)(C)C)C3)nc(N)c2cc1OC |  | 630 | 510 | 250 | 830 | 2700 |  | 1500 | 25 |  |  | 1500 | 31 | 1700 |  |  |  |  |  |

Other lines, results leading:

| IC50 [1] [nM] | Ki [2] [nM] | Ki [3] [nM] | Ki [4] [nM] | Ki [5] [nM] | IC50 [6] [nM] | IC50 [7] [nM] | Ki [8] [nM] | Ki [9] [nM] | IC50 [10] [nM] | Ki [11] [nM] | IC50 [12] [nM] | IC50 [13] [nM] | IC50 [14] [nM] | Ki [15] [nM] | IC50 [16] [nM] | Ki [17] [nM] | IC50 [18] [µM] | Ki [19] [nM] | Structure (SMILES) |
| --- | --- | --- | --- | --- | --- | --- | --- | --- | --- | --- | --- | --- | --- | --- | --- | --- | --- | --- | --- |
|  |  |  |  |  |  |  | 328 |  |  | 191 |  |  |  |  |  |  |  |  | COc1ccccc1N1CCN(CCN2C(=O)CC3(CCCC3)CC2=O)CC1 [BMY-7378] |
|  | 3.4 |  |  |  |  |  | 1.9 |  |  |  |  |  |  | 2 |  |  |  |  | COc1cc2nc(N3CCN(C(=O)C4CCCO4)CC3)nc(N)c2cc1OC (configuration not stated) [TERAZOSIN] |
|  | 50 | 500 |  |  | 9.3 |  | 5.4 |  | 590 |  | 9.3 | 8.8 |  | 34 | 340 | 420 | 5.8 | 2 | COc1cc2nc(N3CCN(C(=O)OCc4ccccc4)[C@H](C(=O)NC(C)(C)C)C3)nc(N)c2cc1OC [L-765314] |
